Test results taken from article PMC9683047, “Design, synthesis and biological evaluation of 4-aminoquinoline derivatives as receptor-interacting protein kinase 2 (RIPK2) inhibitors” (Journal of Enzyme Inhibition and Medicinal Chemistry, 2022).

What was measured:
[1] = target: T1, JAK1(h) (Homo sapiens, UniProt P23458); experiment: Kinase selectivity panel: JAK1; assay type: biochemical
T1 construct: purchased Eurofins (Millipore) KinaseProfiler Diversity Panel
Protocol: (§1) To confirm the anti-inflammatory effect was caused by RIPK2 inhibition, compound 14 was subjected to kinase selectivity evaluation (Figure 4). Kinase selectivity profile of compound 14 as shown by the diversity kinase Panel screen against 70 kinases assayed at 1 µM. Among all tested 70 kinases, only five were inhibited over 90% at 1 µM including Fyn, Lyn, BTK, Abl and RIPK2. Three kinases including KDR, CDK9 and LOK were inhibited 50–90% at 1 µM.

[2] = target: T2, mTOR(h) (Homo sapiens, UniProt P42345); experiment: Kinase selectivity panel: mTOR; assay type: biochemical
T2 construct: purchased Eurofins (Millipore) KinaseProfiler Diversity Panel
Protocol: as §1

[3] = target: T3, PI3 Kinase (p110b/p85a)(h) (Homo sapiens, UniProt P42338); experiment: Kinase selectivity panel: PI3 Kinase (p110b/p85a); assay type: biochemical
T3 construct: purchased Eurofins (Millipore) KinaseProfiler Diversity Panel
Protocol: as §1

[4] = target: T4, SRPK1(h) (Homo sapiens, UniProt Q96SB4); experiment: Kinase selectivity panel: SRPK1; assay type: biochemical; design: unit not given here
T4 construct: purchased Eurofins (Millipore) KinaseProfiler Diversity Panel
Protocol: as §1

[5] = target: T5, EGFR(h) (Homo sapiens, UniProt P00533); experiment: Kinase selectivity panel: EGFR; assay type: biochemical; design: unit not given here
T5 construct: purchased Eurofins (Millipore) KinaseProfiler Diversity Panel
Protocol: as §1

[6] = target: T6, RIPK2(h) (Homo sapiens, UniProt O43353); experiment: Kinase selectivity panel: RIPK2; assay type: biochemical
T6 construct: purchased Eurofins (Millipore) KinaseProfiler Diversity Panel
T6 sequence (O43353 whole entry): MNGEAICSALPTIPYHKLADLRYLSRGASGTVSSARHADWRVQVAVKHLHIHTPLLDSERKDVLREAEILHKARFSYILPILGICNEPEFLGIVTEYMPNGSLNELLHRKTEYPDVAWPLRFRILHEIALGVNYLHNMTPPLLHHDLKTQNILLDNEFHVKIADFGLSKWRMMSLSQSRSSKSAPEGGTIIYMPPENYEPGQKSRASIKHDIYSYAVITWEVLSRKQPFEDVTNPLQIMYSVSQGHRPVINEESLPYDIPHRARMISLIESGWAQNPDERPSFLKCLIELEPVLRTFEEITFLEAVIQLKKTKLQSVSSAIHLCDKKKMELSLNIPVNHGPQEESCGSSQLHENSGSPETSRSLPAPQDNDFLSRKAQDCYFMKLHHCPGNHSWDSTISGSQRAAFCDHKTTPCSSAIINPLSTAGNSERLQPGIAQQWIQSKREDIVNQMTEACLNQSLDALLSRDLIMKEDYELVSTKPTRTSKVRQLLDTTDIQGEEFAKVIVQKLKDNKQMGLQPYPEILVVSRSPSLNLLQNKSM
Protocol: as §1

[7] = target: T7, RIPK1 (Homo sapiens, UniProt Q13546); experiment: RIPK1 inhibition rate at 1 µM; assay type: biochemical
T7 sequence (Q13546 1-671): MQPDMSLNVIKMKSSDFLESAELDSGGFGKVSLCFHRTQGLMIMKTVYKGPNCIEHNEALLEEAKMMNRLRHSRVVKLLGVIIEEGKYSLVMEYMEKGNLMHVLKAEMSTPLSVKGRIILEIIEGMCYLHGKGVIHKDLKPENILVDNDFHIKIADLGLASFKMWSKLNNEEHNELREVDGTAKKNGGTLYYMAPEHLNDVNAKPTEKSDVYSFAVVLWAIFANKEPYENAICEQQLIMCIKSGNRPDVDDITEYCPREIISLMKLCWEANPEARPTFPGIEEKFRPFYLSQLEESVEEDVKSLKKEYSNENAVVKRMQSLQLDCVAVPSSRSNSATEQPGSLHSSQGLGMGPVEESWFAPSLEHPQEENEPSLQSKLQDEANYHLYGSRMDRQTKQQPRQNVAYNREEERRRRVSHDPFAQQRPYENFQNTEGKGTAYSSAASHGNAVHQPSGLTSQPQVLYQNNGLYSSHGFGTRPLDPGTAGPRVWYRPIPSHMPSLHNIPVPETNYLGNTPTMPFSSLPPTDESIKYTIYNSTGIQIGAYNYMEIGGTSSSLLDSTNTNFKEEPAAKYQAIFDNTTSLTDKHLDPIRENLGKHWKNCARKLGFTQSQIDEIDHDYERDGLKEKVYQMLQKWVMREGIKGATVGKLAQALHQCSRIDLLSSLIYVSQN
Protocol: Table 4. Selectivity, ClogP and LipE of compound 14, 15, 21, 32, 36. | column: RIPK1 IR@1µM (%)

[8] = target: T8, PDGFRβ(h) (Homo sapiens, UniProt P09619); experiment: Kinase selectivity panel: PDGFRβ; assay type: biochemical
T8 construct: purchased Eurofins (Millipore) KinaseProfiler Diversity Panel
Protocol: as §1

[9] = target: T9, PI3 Kinase (p120g)(h) (Homo sapiens, UniProt P48736); experiment: Kinase selectivity panel: PI3 Kinase (p120g); assay type: biochemical; conditions: 1 µM
T9 construct: purchased Eurofins (Millipore) KinaseProfiler Diversity Panel
Protocol: as §1

[10] = target: T10, AO oxidase (Homo sapiens, UniProt Q06278); experiment: AO oxidative metabolism in human liver cytosol; assay type: in vitro ADME; conditions: human liver cytosol incubation; inhibitors raloxifene and menadione
T10 construct: could undergo mono oxidative metabolism in the human liver cytosol incubation system; from tissue; host or cells: human liver cytosol
Protocol: However, we have done experiment on AO oxidative metabolism of compound 14 and P5. Both compound 14 and P5 could undergo mono oxidative metabolism in the human liver cytosol incubation system.

[11] = target: T11, MEK1(h) (Homo sapiens, UniProt Q02750); experiment: Kinase selectivity panel: MEK1; assay type: biochemical; conditions: 1 µM
T11 construct: purchased Eurofins (Millipore) KinaseProfiler Diversity Panel
Protocol: as §1

[12] = target: T12, CHK1(h) (Homo sapiens, UniProt O14757); experiment: Kinase selectivity panel: CHK1; assay type: biochemical
T12 construct: purchased Eurofins (Millipore) KinaseProfiler Diversity Panel
Protocol: as §1

[13] = target: T13, BTK(h) (Homo sapiens, UniProt Q06187); experiment: Kinase selectivity panel: BTK; assay type: biochemical
T13 construct: purchased Eurofins (Millipore) KinaseProfiler Diversity Panel
T13 sequence (Q06187 whole entry): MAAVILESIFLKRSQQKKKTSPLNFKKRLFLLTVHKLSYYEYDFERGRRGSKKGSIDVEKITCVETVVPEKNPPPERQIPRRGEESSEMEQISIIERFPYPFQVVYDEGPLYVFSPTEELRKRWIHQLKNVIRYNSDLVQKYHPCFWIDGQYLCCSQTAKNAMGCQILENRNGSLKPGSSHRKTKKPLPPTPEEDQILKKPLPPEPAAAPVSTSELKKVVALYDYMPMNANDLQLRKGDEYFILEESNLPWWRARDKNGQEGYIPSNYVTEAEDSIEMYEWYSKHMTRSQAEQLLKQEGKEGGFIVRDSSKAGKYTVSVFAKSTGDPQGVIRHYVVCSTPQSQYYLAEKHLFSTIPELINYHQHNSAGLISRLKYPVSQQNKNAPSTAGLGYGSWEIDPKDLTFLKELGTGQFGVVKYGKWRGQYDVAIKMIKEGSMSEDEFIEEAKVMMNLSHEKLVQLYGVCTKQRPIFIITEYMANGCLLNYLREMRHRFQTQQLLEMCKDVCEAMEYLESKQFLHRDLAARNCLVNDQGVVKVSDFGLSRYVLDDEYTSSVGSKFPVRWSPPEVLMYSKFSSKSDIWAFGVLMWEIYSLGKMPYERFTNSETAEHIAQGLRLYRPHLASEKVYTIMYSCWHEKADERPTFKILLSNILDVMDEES
Protocol: as §1

[14] = target: T14, DRAK1(h) (Homo sapiens, UniProt Q9UEE5); experiment: Kinase selectivity panel: DRAK1; assay type: biochemical; conditions: 1 µM
T14 construct: purchased Eurofins (Millipore) KinaseProfiler Diversity Panel
T14 sequence (Q9UEE5 whole entry): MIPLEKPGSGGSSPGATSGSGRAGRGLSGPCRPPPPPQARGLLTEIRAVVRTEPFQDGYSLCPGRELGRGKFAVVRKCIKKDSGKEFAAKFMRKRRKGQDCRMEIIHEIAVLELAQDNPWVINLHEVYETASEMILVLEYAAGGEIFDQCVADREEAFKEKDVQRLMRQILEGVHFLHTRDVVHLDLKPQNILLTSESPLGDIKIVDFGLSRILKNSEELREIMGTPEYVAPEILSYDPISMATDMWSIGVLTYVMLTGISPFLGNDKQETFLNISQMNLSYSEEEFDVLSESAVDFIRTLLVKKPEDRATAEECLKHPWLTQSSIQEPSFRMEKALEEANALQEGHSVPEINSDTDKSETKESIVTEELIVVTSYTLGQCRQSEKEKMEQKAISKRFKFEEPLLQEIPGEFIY
Protocol: as §1

[15] = target: T15, IRAK1(h) (Homo sapiens, UniProt P51617); experiment: Kinase selectivity panel: IRAK1; assay type: biochemical
T15 construct: purchased Eurofins (Millipore) KinaseProfiler Diversity Panel
Protocol: as §1

[16] = target: T16, Itk(h) (Homo sapiens, UniProt Q08881); experiment: Kinase selectivity panel: Itk; assay type: biochemical
T16 construct: purchased Eurofins (Millipore) KinaseProfiler Diversity Panel
Protocol: as §1

[17] = target: T17, RIPK2 (Homo sapiens, UniProt O43353); experiment: Lipophilic ligand efficiency (LipE); conditions: LipE = pIC50 − ClogP
T17 construct: purchased Promega
T17 sequence (O43353 whole entry): as the sequence (O43353 whole entry) above

[18] = target: T18, JAK2(h) (Homo sapiens, UniProt O60674); experiment: Kinase selectivity panel: JAK2; assay type: biochemical; conditions: 1 µM
T18 construct: purchased Eurofins (Millipore) KinaseProfiler Diversity Panel
Protocol: as §1

[19] = target: T19, EphB4(h) (Homo sapiens, UniProt P54760); experiment: Kinase selectivity panel: EphB4; assay type: biochemical
T19 construct: purchased Eurofins (Millipore) KinaseProfiler Diversity Panel
Protocol: as §1

[20] = target: T20, Aurora-A(h) (Homo sapiens, UniProt O14965); experiment: Kinase selectivity panel: Aurora-A; assay type: biochemical; conditions: 1 µM
T20 construct: purchased Eurofins (Millipore) KinaseProfiler Diversity Panel
Protocol: as §1

[21] = target: T21, Plk3(h) (Homo sapiens, UniProt Q9H4B4); experiment: Kinase selectivity panel: Plk3; assay type: biochemical; conditions: 1 µM
T21 construct: purchased Eurofins (Millipore) KinaseProfiler Diversity Panel
Protocol: as §1

[22] = target: T22, MAPKAP-K2(h) (Homo sapiens, UniProt P49137); experiment: Kinase selectivity panel: MAPKAP-K2; assay type: biochemical; conditions: 1 µM
T22 construct: purchased Eurofins (Millipore) KinaseProfiler Diversity Panel
T22 sequence (P49137 whole entry): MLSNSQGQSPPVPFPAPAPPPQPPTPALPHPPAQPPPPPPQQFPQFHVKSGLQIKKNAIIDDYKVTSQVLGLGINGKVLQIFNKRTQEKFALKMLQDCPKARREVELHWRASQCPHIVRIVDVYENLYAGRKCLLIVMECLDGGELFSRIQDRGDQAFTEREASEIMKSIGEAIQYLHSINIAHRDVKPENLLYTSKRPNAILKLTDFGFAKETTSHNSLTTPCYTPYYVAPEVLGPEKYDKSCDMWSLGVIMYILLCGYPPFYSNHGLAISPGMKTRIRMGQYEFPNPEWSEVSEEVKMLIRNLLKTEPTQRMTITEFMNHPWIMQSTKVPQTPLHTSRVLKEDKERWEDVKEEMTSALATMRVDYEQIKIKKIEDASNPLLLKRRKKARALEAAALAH
Protocol: as §1

[23] = target: T23, GSK3β(h) (Homo sapiens, UniProt P49841); experiment: Kinase selectivity panel: GSK3β; assay type: biochemical; conditions: 1 µM
T23 construct: purchased Eurofins (Millipore) KinaseProfiler Diversity Panel
Protocol: as §1

[24] = target: T24, c-RAF(h) (Homo sapiens, UniProt P04049); experiment: Kinase selectivity panel: c-RAF; assay type: biochemical
T24 construct: purchased Eurofins (Millipore) KinaseProfiler Diversity Panel
T24 sequence (P04049 whole entry): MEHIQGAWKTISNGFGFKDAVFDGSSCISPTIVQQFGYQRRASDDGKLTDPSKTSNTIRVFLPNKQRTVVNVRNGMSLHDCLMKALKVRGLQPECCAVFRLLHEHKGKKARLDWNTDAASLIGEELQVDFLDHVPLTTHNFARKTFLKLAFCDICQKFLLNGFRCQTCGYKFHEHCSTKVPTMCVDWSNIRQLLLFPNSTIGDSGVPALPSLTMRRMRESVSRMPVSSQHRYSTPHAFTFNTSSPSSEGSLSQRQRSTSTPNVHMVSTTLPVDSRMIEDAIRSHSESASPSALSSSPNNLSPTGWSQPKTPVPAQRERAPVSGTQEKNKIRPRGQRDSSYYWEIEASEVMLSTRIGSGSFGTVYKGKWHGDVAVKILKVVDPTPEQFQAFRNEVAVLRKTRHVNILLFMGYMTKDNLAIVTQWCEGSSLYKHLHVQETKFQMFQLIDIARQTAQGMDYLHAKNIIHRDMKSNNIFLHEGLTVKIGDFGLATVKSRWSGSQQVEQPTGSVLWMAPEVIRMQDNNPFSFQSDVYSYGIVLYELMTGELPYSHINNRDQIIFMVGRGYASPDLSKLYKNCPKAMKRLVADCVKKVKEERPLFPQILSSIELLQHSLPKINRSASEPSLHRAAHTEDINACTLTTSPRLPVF
Protocol: as §1

[25] = target: T25, CK1γ1(h) (Homo sapiens, UniProt Q9HCP0); experiment: Kinase selectivity panel: CK1γ1; assay type: biochemical; conditions: 1 µM
T25 construct: purchased Eurofins (Millipore) KinaseProfiler Diversity Panel
Protocol: as §1

[26] = target: T26, MST1(h) (Homo sapiens, UniProt Q13043); experiment: Kinase selectivity panel: MST1; assay type: biochemical
T26 construct: purchased Eurofins (Millipore) KinaseProfiler Diversity Panel
Protocol: as §1

[27] = target: T27, CDK9/cyclin T1(h) (Homo sapiens, UniProt P50750); experiment: Kinase selectivity panel: CDK9/cyclin T1; assay type: biochemical
T27 construct: purchased Eurofins (Millipore) KinaseProfiler Diversity Panel
T27 sequence (P50750 whole entry): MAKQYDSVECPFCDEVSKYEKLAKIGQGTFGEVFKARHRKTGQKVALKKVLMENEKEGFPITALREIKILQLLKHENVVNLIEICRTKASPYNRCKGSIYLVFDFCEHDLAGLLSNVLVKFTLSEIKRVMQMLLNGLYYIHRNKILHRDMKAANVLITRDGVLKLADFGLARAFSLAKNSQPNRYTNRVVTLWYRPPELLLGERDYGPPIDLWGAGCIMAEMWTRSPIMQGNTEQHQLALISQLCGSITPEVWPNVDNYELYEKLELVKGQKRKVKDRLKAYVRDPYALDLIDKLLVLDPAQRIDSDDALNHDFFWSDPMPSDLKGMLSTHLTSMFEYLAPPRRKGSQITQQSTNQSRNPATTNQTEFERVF
T27 sequence (O60563 whole entry partner): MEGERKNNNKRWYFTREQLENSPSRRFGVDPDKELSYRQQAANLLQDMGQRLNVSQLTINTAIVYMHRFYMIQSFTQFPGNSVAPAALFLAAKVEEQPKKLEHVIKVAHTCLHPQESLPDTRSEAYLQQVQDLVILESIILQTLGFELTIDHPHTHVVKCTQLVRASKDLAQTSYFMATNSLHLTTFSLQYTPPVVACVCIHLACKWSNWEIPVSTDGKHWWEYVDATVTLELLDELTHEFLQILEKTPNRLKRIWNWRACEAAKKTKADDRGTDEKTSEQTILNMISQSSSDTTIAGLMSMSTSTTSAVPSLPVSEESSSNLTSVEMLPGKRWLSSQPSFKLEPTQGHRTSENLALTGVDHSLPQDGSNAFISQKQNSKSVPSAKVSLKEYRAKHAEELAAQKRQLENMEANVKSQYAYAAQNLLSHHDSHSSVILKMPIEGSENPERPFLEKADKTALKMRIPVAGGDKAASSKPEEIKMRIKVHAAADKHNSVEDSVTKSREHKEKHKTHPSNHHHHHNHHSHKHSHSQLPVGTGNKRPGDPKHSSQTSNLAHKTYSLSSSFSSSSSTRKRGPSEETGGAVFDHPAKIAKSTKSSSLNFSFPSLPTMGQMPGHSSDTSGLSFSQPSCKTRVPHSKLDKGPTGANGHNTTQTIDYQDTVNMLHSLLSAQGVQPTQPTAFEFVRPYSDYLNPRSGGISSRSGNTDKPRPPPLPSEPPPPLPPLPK
Protocol: as §1

[28] = target: T28, Abl(h) (Homo sapiens, UniProt P00519); experiment: Kinase selectivity panel: Abl; assay type: biochemical
T28 construct: purchased Eurofins (Millipore) KinaseProfiler Diversity Panel
T28 sequence (P00519 whole entry): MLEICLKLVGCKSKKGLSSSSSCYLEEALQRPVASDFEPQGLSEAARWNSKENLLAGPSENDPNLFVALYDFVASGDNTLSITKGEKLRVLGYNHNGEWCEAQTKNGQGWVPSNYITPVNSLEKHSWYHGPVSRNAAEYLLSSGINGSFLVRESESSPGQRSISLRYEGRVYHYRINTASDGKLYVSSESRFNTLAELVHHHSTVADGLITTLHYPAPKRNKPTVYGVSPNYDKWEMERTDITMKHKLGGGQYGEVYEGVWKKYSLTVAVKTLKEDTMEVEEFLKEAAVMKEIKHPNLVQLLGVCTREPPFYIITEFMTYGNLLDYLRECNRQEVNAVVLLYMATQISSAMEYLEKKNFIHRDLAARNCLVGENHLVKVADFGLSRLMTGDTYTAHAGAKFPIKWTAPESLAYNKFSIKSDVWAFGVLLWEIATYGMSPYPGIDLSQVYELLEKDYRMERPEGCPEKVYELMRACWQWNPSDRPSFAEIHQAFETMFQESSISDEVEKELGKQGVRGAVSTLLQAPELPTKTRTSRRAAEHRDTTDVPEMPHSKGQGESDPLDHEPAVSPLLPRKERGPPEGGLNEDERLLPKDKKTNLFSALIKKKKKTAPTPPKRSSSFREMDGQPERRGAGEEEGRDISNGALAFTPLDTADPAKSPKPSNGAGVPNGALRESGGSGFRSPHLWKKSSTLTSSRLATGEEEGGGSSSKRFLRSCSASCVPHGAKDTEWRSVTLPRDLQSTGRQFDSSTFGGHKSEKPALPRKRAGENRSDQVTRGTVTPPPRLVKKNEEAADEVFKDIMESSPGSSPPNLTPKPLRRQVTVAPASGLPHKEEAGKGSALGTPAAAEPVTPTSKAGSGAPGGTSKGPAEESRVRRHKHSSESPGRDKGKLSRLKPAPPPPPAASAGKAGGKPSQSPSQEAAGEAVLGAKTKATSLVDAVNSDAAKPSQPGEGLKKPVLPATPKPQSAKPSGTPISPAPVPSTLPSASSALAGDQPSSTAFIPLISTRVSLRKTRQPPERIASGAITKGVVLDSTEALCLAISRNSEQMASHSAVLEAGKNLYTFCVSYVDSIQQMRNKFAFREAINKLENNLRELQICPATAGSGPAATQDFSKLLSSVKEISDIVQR
Protocol: as §1

## c1cc(-c2ccc3nccc(Nc4ccc5scnc5c4)c3c2)ccn1 [Compound 14, N-(6-(pyridin-4-yl)quinolin-4-yl)benzo[d]thiazol-5-amine]
[1]
  JAK1 remaining kinase activity with compound 14 at 1 µM (% of control): 105
[2]
  % remaining mTOR activity with compound 14 at 1 µM: 106
[3]
  remaining kinase activity (% of control) with compound 14 at 1 µM: 88
[4]
  SRPK1(h), 14 @ 1 µM: 111
[5]
  EGFR(h), 14 @ 1 µM: 104
[6]; 1 µM
  RIPK2 remaining activity (% of control): 3
[6]; at 1 µM
  inhibition at 1 µM: > 90%
[7]
  RIPK1 IR@1µM (%): <1%
[8]
  Remaining kinase activity at 1 µM (% of control): 64
[9]
  Remaining kinase activity (% of control): 79
[10]
  AO oxidase substrate: metabolic substrates of AO oxidase
[11]
  % remaining MEK1 activity: 105
[12]
  CHK1 remaining activity (% of control) at 1 µM: 100
[13]; 1 µM
  remaining BTK activity (% of control): 4
[13]; at 1 µM
  inhibition at 1 µM: > 90%
[14]
  Remaining DRAK1 activity (% of control): 110
[15]
  IRAK1 remaining activity (% of control) with compound 14 at 1 µM: 91
[16]
  Remaining Itk kinase activity (%) with compound 14 at 1 µM: 78
[17]
  LipE: 4.40
[18]
  remaining kinase activity (%): 93
[19]
  EphB4 remaining activity (%) with compound 14 at 1 µM: 96
[20]
  Remaining kinase activity (% of control): 95
[21]
  remaining Plk3 kinase activity (% of control): 86
[22]
  percent remaining MAPKAP-K2 activity: 95
[23]
  remaining kinase activity (%): 75
[24]
  c-RAF remaining activity (% of control) with compound 14 at 1 µM: 65
[25]
  Remaining kinase activity (% of control): 93
[26]
  MST1 kinase activity remaining with compound 14 at 1 µM (% of control): 105
[27]; 1 µM
  remaining kinase activity (%): 41
[27]; at 1 µM
  inhibition at 1 µM: 50 to 90%
[28]; 1 µM
  Abl remaining activity (% of control): 9
[28]; at 1 µM
  inhibition at 1 µM: > 90%
